Results: patent US20200069691A1, “HETEROCYCLIC COMPOUNDS AS HIV PROTEASE INHIBITORS” (Merck Sharp & Dohme Corp., priority 2016, published 2020)

Molecular target: T1, wild-type HIV-1 protease (Human immunodeficiency virus type 1 group M subtype B, UniProt P04585)
T1 construct: Escherichia coli expressed wild-type HIV-1 protease protein
Experiment: Assay for Inhibition of Microbial Expressed HIV Protease (peptide substrate cleavage, LC-MS/MS readout)
Type: biochemical
Conditions: E. coli expressed wild-type HIV-1 protease, mean of at least two independent experiments, read-out: HIV Pr Enzyme HIV1 PR IC50
Experimental: Assay for Inhibition of Microbial Expressed HIV Protease
Inhibition of Escherichia coli expressed wild-type HIV-1 protease protein was carried out with a peptide substrate [Val-Ser-Gln-Asn-(βnaphtyl)Ala-Pro-Ile-Val]. The inhibitor compound was preincubated with HIV-1 protease enzyme in assay buffer (50 mM sodium acetate, pH 5.5, 100 mM NaCl, and 0.1% BSA) for 30 minutes at room temperature. Peptide substrate was added to 400 μM in a total volume of 20 μL containing […] HIV-1 protease (final) after which the reaction was incubated for 1 hour at 30° C. […] The extent of inhibition of the reaction was determined from the peak area of the products.
Data shown in the table reflects the mean of at least two independent experiments.

SMILES | IC50
N=C1NC(CCC2CC2)(c2ccc(C(F)(F)F)cc2)C(=O)N1Cc1ccc(C(F)(F)F)c(C(=O)N2CCn3c(nnc3C(F)(F)F)C2)c1 (stereo not shown) [Compound 131, 5-(2-cyclopropylethyl)-2-imino-5-[4-(trifluoromethyl)phenyl]-3-[4-(trifluoromethyl)-3-{[3-(trifluoromethyl)-5,6-dihydro-[1,2,4]triazolo[4,3-a]pyrazin-7(8H)-yl]carbonyl}benzyl] imidazolidin-4-one] | 84.9 nM
CC(C)NC(=O)N1CCN(C(=O)c2cccc(CN3C(=N)NC(c4ccccc4)(c4ccccc4)C3=O)c2)CC1 [Compound 326, 4-({3-[(2-imino-5-oxo-4,4-diphenylimidazolidin-1-yl)methyl]phenyl}carbonyl)-N-(1-methylethyl) piperazine-1-carboxamide] | 59.4 nM
N=C1NC(c2ccc(F)cc2)(c2ccc(F)cc2)C(=O)N1Cc1ccc(C(F)(F)F)c(C(=O)N2CCCC2)c1 [Compound 180, 5,5-bis(4-fluorophenyl)-2-imino-3-[3-(pyrrolidin-1-ylcarbonyl)-4-(trifluoromethyl)benzyl] imidazolidin-4-one] | 78.8 nM
CN(C)C(=O)N1CCN(C(=O)c2cccc(CN3C(=N)NC(c4ccccc4)(c4ccccc4)C3=O)c2)CC1 [Compound 357, 4-({3-[(2-imino-5-oxo-4,4-diphenylimidazolidin-1-yl)methyl]phenyl}carbonyl)-N,N-dimethylpiperazine-1-carboxamide] | 91.2 nM
N=C1N[C@](CCCC(F)(F)F)(c2ccc(F)cc2)C(=O)N1Cc1ccc(C(F)(F)F)c(C(=O)N2Cc3cnc(-c4cnc5[nH]ccc5c4)nc3C2)c1 [Compound 39, (5R)-5-(4-fluorophenyl)-2-imino-3-[3-{[2-(1H-pyrrolo[2,3-b]pyridin-5-yl)-5,7-dihydro-6H-pyrrolo[3,4-d]pyrimidin-6-yl]carbonyl}-4-(trifluoromethyl)benzyl]-5-(4,4,4-trifluorobutyl)imidazolidin-4-one] | 4.1 nM
COC(=O)C1c2ccccc2CN1C(=O)c1cccc(CN2C(=N)NC(c3ccccc3)(c3ccccc3)C2=O)c1 (stereo not shown) [Compound 287, methyl 2-({3-[(2-imino-5-oxo-4,4-diphenylimidazolidin-1-yl)methyl]phenyl}carbonyl)-2,3-dihydro-1H-isoindole-1-carboxylate] | 33.9 nM
N=C1NC(c2ccccc2)(c2ccc(Br)cc2)C(=O)N1Cc1cccc(C(=O)N2Cc3ccccc3C2)c1 (stereo not shown) [Compound 213, 5-(4-bromophenyl)-3-[3-(1,3-dihydro-2H-isoindol-2-ylcarbonyl)benzyl]-2-imino-5-phenylimidazolidin-4-one] | 9.77 nM
N=C1NC(c2ccccc2)(c2ccccc2)C(=O)N1Cc1cccc(C(=O)N2CCn3c(nnc3C(F)(F)F)C2)c1 [Compound 291, 2-imino-5,5-diphenyl-3-(3-{[3-(trifluoromethyl)-5,6-dihydro[1,2,4]triazolo[4,3-a]pyrazin-7(8H)-yl]carbonyl}benzyl) imidazolidin-4-one] | 37.9 nM
CC(C)CC(c1ccc(C(F)(F)F)c(C(=O)N2CCn3c(nnc3C(F)(F)F)C2)c1)N1C(=N)N[C@@](C[C@@H]2CCOC2)(c2ccc(F)cc2)C1=O (stereo partly drawn) [Compound 29, (5S)-5-(4-fluorophenyl)-2-imino-3-{3-methyl-1-[4-(trifluoromethyl)-3-{[3-(trifluoromethyl)-5,6-dihydro-[1,2,4]triazolo[4,3-a]pyrazin-7(8H)-yl]carbonyl}phenyl]butyl}-5-[(3R)-tetrahydrofuran-3-ylmethyl]-imidazolidin-4-one] | 3.07 nM
COC(=O)Nc1ncc2c(n1)CN(C(=O)c1cccc(CN3C(=N)NC(c4ccccc4)(c4ccccc4)C3=O)c1)C2 [Compound 190, methyl [6-({3-[(2-imino-5-oxo-4,4-diphenylimidazolidin-1-yl)methyl]phenyl}carbonyl)-6,7-dihydro-5H-pyrrolo[3,4-d]pyrimidin-2-yl]carbamate] | 3.86 nM
N=C1NC(CCC2CC2)(c2cccc(C(F)(F)F)c2)C(=O)N1Cc1ccc(C(F)(F)F)c(C(=O)N2Cc3nccnc3C2)c1 (stereo not shown) [Compound 75, 5-(2-cyclopropylethyl)-3-[3-(5,7-dihydro-6H-pyrrolo[3,4-b]pyrazin-6-ylcarbonyl)-4-(trifluoromethyl)-benzyl]-2-imino-5-[3-(trifluoro-methyl)phenyl]-imidazolidin-4-one] | 10.2 nM
CC(C)CCC1(c2ccccc2)NC(=N)N(Cc2cccc(C(=O)N3Cc4nccnc4C3)c2)C1=O (stereo not shown) [Compound 208, 3-[3-(5,7-dihydro-6H-pyrrolo[3,4-b]pyrazin-6-ylcarbonyl)benzyl]-2-imino-5-(3-methylbutyl)-5-phenylimidazolidin-4-one] | 35.2 nM
N=C1NC(c2ccc(F)cc2)(c2ccc(F)cc2)C(=O)N1Cc1cccc(C(=O)N2CCC(n3c(=O)oc4ccccc43)CC2)c1 [Compound 319, 3-{1-[(3-{[4,4-bis(4-fluorophenyl)-2-imino-5-oxoimidazolidin-1-yl]methyl}phenyl)carbonyl]piperidin-4-yl}-1,3-benzoxazol-2(3H)-one] | 56.2 nM
N=C1NC(c2ccc(F)cc2)(c2ccc(F)cc2)C(=O)N1Cc1ccc(C(F)(F)F)c(C(=O)N2Cc3nccnc3C2)c1 [Compound 139, 3-[3-(5,7-dihydro-6H-pyrrolo[3,4-b]pyrazin-6-ylcarbonyl)-4-(trifluoromethyl)benzyl]-5,5-bis(4-fluorophenyl)-2-iminoimidazolidin-4-one] | 2.93 nM
CC(C)CCC1(c2ccc(F)cc2)NC(=N)N(Cc2cccc(C(=O)N3Cc4nccnc4C3)c2)C1=O (stereo not shown) [Compound 252, 3-[3-(5,7-dihydro-6H-pyrrolo[3,4-b]pyrazin-6-ylcarbonyl)benzyl]-5-(4-fluorophenyl)-2-imino-5-(3-methylbutyl)imidazolidin-4-one] | 19.8 nM
CC(C)CC(c1ccc(C(F)(F)F)c(C(=O)N2CCn3c(nnc3C(F)(F)F)C2)c1)N1C(=N)N[C@](C[C@@H]2CCOC2)(c2ccc(F)cc2)C1=O (stereo partly drawn) [Compound 123, (5R)-5-(4-fluorophenyl)-2-imino-3-{3-methyl-1-[4-(trifluoromethyl)-3-{[3-(trifluoromethyl)-5,6-dihydro-[1,2,4]triazolo[4,3-a]pyrazin-7(8H)-yl]carbonyl}phenyl]butyl}-5-[(3R)-tetrahydrofuran-3-ylmethyl]-imidazolidin-4-one] | 55.7 nM
N=C1N[C@](CCCC(F)(F)F)(c2ccc(F)cc2)C(=O)N1Cc1ccc(C(F)(F)F)c(C(=O)N2CCN(c3ccccn3)CC2)c1 [Compound 99, (5R)-5-(4-fluorophenyl)-2-imino-3-{3-[(4-pyridin-2-ylpiperazin-1-yl)carbonyl]-4-(trifluoromethyl)-benzyl}-5-(4,4,4-trifluorobutyl)-imidazolidin-4-one] | 21.4 nM
CN1CCN(C(=O)c2cc(CN3C(=N)NC(c4ccccc4)(c4ccccc4)C3=O)ccc2C(F)(F)F)CC1=O [Compound 153, 4-({5-[(2-imino-5-oxo-4,4-diphenylimidazolidin-1-yl)methyl]-2-(trifluoromethyl)phenyl}-carbonyl)-1-methylpiperazin-2-one] | 10.1 nM
CC(C)CCC1(c2ccccc2)NC(=N)N(Cc2cccc(C(=O)N3Cc4cnc(C#N)nc4C3)c2)C1=O (stereo not shown) [Compound 191, 6-[(3-{[2-imino-4-(3-methylbutyl)-5-oxo-4-phenylimidazolidin-1-yl]methyl}phenyl)carbonyl]-6,7-dihydro-5H-pyrrolo[3,4-d]pyrimidine-2-carbonitrile] | 4.17 nM
COC(=O)N1CCN(C(=O)c2cccc(CN3C(=N)NC(CCC(C)C)(c4cccc(-c5cccnc5)c4)C3=O)c2)CC1 (stereo not shown) [Compound 354, methyl 4-[(3-{[2-imino-4-(3-methylbutyl)-5-oxo-4-(3-pyridin-3-ylphenyl)imidazolidin-1-yl]methyl}phenyl)carbonyl] piperazine-1-carboxylate] | 89.1 nM
N=C1N[C@](CCCC(F)(F)F)(c2ccc(F)cc2)C(=O)N1Cc1ccc(C(F)(F)F)c(C(=O)N2Cc3cnc(-c4ccc(F)cc4)nc3C2)c1 [Compound 97, (5R)-5-(4-fluorophenyl)-3-[3-{[2-(4-fluorophenyl)-5,7-dihydro-6H-pyrrolo[3,4-d]pyrimidin-6-yl]carbonyl}-4-(trifluoromethyl)-benzyl]-2-imino-5-(4,4,4-trifluorobutyl)imidazolidin-4-one] | 20.5 nM
CC(C)C[C@]1(c2ccccc2)NC(=N)N([C@H](C)c2ccc(C(F)(F)F)c(C(=O)N3Cc4nccnc4C3)c2)C1=O [Compound 147, (5R)-3-{(1R)-1-[3-(5,7-dihydro-6H-pyrrolo[3,4-b]pyrazin-6-ylcarbonyl)-4-(trifluoromethyl)phenyl]ethyl}-2-imino-5-(2-methylpropyl)-5-phenylimidazolidin-4-one] | 4.75 nM
CCOC(=O)NC1CCN(C(=O)c2cccc(CN3C(=N)NC(c4ccccc4)(c4ccccc4)C3=O)c2)CC1 [Compound 355, ethyl [1-({3-[(2-imino-5-oxo-4,4-diphenylimidazolidin-1-yl)methyl]phenyl}carbonyl)piperidin-4-yl]carbamate] | 89.8 nM
COC(=O)N1CCN(C(=O)c2cc(CN3C(=N)NC(c4ccc(F)cc4)(c4ccc(F)cc4)C3=O)ccc2Cl)CC1 [Compound 381, methyl 4-[(5-{[4,4-bis(4-fluorophenyl)-2-imino-5-oxoimidazolidin-1-yl]methyl}-2-chlorophenyl)carbonyl] piperazine-1-carboxylate] | 12.4 nM
CCOC(=O)c1nc2n(c1Cl)CCN(C(=O)c1cccc(CN3C(=N)NC(c4ccccc4)(c4ccccc4)C3=O)c1)C2 [Compound 209, ethyl 3-chloro-7-({3-[(2-imino-5-oxo-4,4-diphenylimidazolidin-1-yl)methyl]phenyl}carbonyl)-5,6,7,8-tetrahydroimidazo[1,2-a]pyrazine-2-carboxylate] | 8.83 nM
